In patent publication US8258182B2, “Substituted 1,3-diphenylpropane derivatives, preparations and uses thereof” (Genfit, priority 2006, dated 2012):

Assays:
db/db mice = test: Plasma HDL-cholesterol, triglycerides and free fatty acids in db/db mice after per os treatment; type: in vivo, mouse; conditions: 50 mpk per os, 28 days
Method: The effect of the compounds according to the invention is evaluated in vivo on the db/db mice by measuring the levels of HDL-cholesterol, triglycerides, and plasma free fatty acids after 28 days of a per os treatment with the compounds according to the invention.
The hypolipidemic properties of the compounds according to the invention are evaluated in vivo by measuring the plasma levels of plasmatic lipids and by analyzing the genetic expression PPARs target genes, after treating the dyslipidemic db/db mice with the compounds according to the invention, administered by the oral route.
Female db/db mice were kept on a 12 hour/12 hour light/dark cycle at a constant temperature of 20±3° C. After a one week acclimatization period, the mice were weighed and divided into groups of 8 animals selected such as the distribution of body weight and of plasma lipid rate, determined before the experiment, was uniform. The tested compounds were suspended in carboxymethylcellulose (Sigma C4888) and administered to the animals by intra-gastric gavage, once a day for 28 days at the chosen doses. The animals had free access to food and water (standard diet). Taking of food and weight gain are recorded throughout the experiment. At the end of the experiment, after a 4 hour fast, the animals were anesthetized and a blood sample was taken on anticoagulant (EDTA). Then the mice were weighed and euthanized. The plasma was separated by centrifugation at 3000 rotations/minute for 20 minutes. The samples were kept at +4° C. The hepatic tissue and skeletal muscle samples were taken and frozen immediately in liquid nitrogen then conserved at −80° C. for later analysis.
Plasma triglycerides concentrations are measured by enzymatic assays (bioMérieux-Lyon-France) according to the provider's recommendations.
Low-density lipoproteins (VLDL and LDL) are precipitated by phosphotungstate. The precipitate is eliminated by centrifugation. HDL-cholesterol present in the supernatant is measured by enzymatic assay (bioMérieux-Lyon-France) in accordance with the provider's recommendations.

[1] = system: MCP1 secretion by THP1 monocytes; test: Secretion of MCP1 by THP1 monocytes stimulated with PMA (ELISA); type: cell-based, human; conditions: 1 μM, 24 hours, PMA 5 ng/ml, vs DMSO alone (FIG. 4-1)
Method: (§1) The anti-inflammatory effects of the compounds according to the invention were evaluated by measuring the secretion of MCP1 (Monocyte chemotactic protein-1) by THP1 monocytes treated for 24 hours with the compounds according to the invention and stimulated simultaneously with PMA (Phorbol 12-myristate 13-acetate, which promotes an inflammatory response in cells and their differentiation into macrophages).
as §1, with “of the compound according to” for “of the compounds according to”, “into macrophages). […]” for “into macrophages).”
The treatment medium is recovered and the MCP1 concentration is measured using the ELISA kit<<Human MCP-1 ELISA Set>>(BD OptEIA; 555179) in accordance with the manufacturer's recommendation.
MCP1 is laid on a plate and is recognized by a anti-MCP1 specific antibody. […] The coloration resulting from the enzymating activity is proportional to the quantity of fixed MCP1 and can be measured by a spectrophotometry method. A range is performed from a point representative of a known concentration and from which the MCP1 concentration of each sample is calculated. […]

Which “plasma HDL-cholesterol rates” value (db/db mice; vs control animals (FIG. 3-1)) does the source give for `CCCOc1ccc(C(=O)CCc2cc(C)c(OC(C)(C)C(=O)O)c(C)c2)cc1` [Compound 8, 2-[2,6-dimethyl-4-[3-[4-(propyloxy)phenyl]-3-oxo-propyl]phenoxyl]-2-methylpropanoic acid] here?
Its value is “significantly increased”.

What about the circulating triglycerides rates (db/db mice; vs control animals (FIG. 3-2)) of the same compound?
Its circulating triglycerides rates is “very significantly decreased”.

What about the “circulating free fatty acids rates” value (db/db mice; vs control animals (FIG. 3-3)) of the same compound?
The value was “very significantly decreased”.

And the “MCP1 secreted by monocytes” value [1]?
The value was “significant reduction”.
